Measurements taken from patent US11174286B2, “Inhibitors of NF κ-B activity for treatment of diseases and disorders” (priority 2014, dated 2021).

Tests used:
[1] = test system: chemically induced tumor in hamster cheek; test: DMBA-induced oral tumor in hamster buccal pouch, topical peptide gel; type: in vivo, Syrian hamsters; conditions: hamster cheek, FIG. 6C
Protocol: A peptide inhibitor of NF κB activity disclosed herein was tested for treatment of induced oral tumors. Male Syrian hamsters aged 8 to 10 weeks weighing between 100 and 110 g were used. The animals were fed a standard pellet diet and water ad libitum, and were maintained in accordance with applicable ethical and institutional guidelines. The animals were randomized into 10 groups of 8 animals each, and the right buccal pouches of hamsters in groups 1-5 were painted with 0.5% 7,12-dimethylbenz[a]anthracene (DMBA) in liquid paraffin three times a week for 12 weeks.
Mucoadhesive gels containing peptides were prepared by slowly adding Noveon AA1 (0.675% w/w) and Carbopol 971P NF (0.788% w/w) to purified water. The mixture was stirred at 1,025 rpm for one hour to allow full rehydration. Then 0.9% w/w glycerine, 2-phenoxyethanol, benzyl alcohol, and EDTA were added, followed by mixing at 875 rpm for one hour at room temperature. Finally, the desired peptide was added to the gel, and the gel mixed at 875 rpm for one hour to homogenize the gel (Kavitha et al., Biochimie 102:56-67 (2014); Mallery et al., Pharm Res. 24(4):728-737 (2007)).
Hamsters in Group 1 received no further treatment. For hamsters in Groups 2 and 3, peptide gel was applied topically to the right buccal pouches of the hamsters from the 12th to the 18th week daily at concentrations of 10 microgram/ml (2.35 microgram dosage of peptide per application) and 100 microgram/ml (23.5 microgram dosage of peptide per application) respectively. Another group of animals painted with liquid paraffin alone served as control. The experiment was terminated after 18 weeks and all animals were sacrificed by cervical dislocation after an overnight fast.

human dermal fibroblasts = test: Gene microarray analysis of gene expression; type: cell-based; conditions: 1.0 micromolar peptide
Excerpt: (§1) NF κB inhibitor peptide SEQ ID NO: 010 down-regulates expression of genes known to be associated with the pathobiological action of NF κB and TNF α. […] The upregulation of certain target genes by the transcription factor NF κB is a major contributory factor in diseases and disorders attributed to the activation of NF κB. The downregulation of these genes by the NF κB inhibitor peptides can be expected to provide prophylaxis and therapy for such disorders. (The downregulation of some of these genes was confirmed in vivo in a study to examine the efficacy of NF κB inhibitor peptide, SEQ ID NO: 010.) Certain genes were also tested in a rodent squamous cell carcinoma model, by PCR and by immunoblots (mRNA levels were monitored by PCR and the corresponding protein levels were monitored by immunoblots).

[2] = In vivo study confirming gene downregulation
Excerpt: as §1

Substance: NVAENA [SEQ ID NO:010]
- histology of DMBA-treated tissue after peptide treatment [1]: histology is closer to normal histology after treatment
- expression of genes associated with the pathobiological action of NF κB and TNF α (human dermal fibroblasts): down-regulates
- downregulation of some of these genes in vivo [2]: confirmed
